Reference: ChEMBL document CHEMBL1136547, “2,3-Diarylbenzopyran derivatives as a novel class of selective cyclooxygenase-2 inhibitors” (Bioorg Med Chem Lett, 2003)

Assays:
[1] = molecular target: T1, Prostaglandin G/H synthase 1 (Mus musculus) (UniProt P22437); experiment: In vitro percentage inhibition against prostaglandin G/H synthase 1 using freshly harvested mouse peritoneal macrophages at 10 ug/mL concentration
T1 sequence (whole entry): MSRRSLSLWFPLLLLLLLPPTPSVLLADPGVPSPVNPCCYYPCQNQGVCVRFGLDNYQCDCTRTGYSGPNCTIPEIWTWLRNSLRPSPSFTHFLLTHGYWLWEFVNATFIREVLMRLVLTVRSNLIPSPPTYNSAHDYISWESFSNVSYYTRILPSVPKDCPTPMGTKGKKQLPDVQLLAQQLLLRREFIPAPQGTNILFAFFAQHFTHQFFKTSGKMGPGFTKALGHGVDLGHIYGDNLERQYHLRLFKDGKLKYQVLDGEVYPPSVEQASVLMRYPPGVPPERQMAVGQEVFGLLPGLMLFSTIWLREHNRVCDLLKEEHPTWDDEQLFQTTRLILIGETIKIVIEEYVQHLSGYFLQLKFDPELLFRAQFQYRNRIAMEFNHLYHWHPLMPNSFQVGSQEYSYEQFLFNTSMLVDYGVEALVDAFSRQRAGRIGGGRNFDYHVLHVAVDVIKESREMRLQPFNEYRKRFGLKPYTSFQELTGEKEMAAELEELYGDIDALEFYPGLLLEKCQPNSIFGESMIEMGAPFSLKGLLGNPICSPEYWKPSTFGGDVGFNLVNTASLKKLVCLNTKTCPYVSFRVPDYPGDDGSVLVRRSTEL

[2] = molecular target: T2, Prostaglandin G/H synthase 2 (Mus musculus, UniProt Q05769); experiment: In vitro inhibitory concentration against prostaglandin G/H synthase 2 using freshly harvested mouse peritoneal macrophages
T2 sequence (Q05769 whole entry): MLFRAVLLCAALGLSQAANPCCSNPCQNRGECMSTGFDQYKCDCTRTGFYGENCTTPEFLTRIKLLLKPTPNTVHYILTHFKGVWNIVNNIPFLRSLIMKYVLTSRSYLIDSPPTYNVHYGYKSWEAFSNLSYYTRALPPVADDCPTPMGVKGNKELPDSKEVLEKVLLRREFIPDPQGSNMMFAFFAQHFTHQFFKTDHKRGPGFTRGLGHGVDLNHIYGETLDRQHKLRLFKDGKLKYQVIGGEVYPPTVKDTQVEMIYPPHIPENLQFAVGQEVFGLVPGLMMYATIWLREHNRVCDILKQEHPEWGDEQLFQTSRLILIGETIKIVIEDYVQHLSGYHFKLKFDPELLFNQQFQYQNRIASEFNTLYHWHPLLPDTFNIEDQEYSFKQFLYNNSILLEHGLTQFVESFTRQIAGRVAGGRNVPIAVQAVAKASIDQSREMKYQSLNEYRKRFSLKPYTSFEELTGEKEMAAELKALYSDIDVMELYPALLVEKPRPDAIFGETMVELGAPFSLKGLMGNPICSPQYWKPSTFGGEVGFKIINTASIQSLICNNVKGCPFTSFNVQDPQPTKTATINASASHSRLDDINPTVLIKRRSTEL

[3] = molecular target: T3, Prostaglandin G/H synthase 2 (Mus musculus) (UniProt Q05769); experiment: In vitro percentage inhibition against Prostaglandin G/H synthase 2 using freshly harvested mouse peritoneal macrophages at 10 ug/mL concentration
T3 sequence (whole entry): T2 sequence (Q05769 whole entry)

[4] = Cmax in rat at 10 mg/kg; format: ADME, organism-based; design: dose 10 mg/kg; details: in vivo
[5] = Half-life period in rat at 10 mg/kg; format: ADME, organism-based; design: dose 10 mg/kg; details: in vivo
[6] = Tmax in rat at 10 mg/kg; format: ADME, organism-based; design: dose 10 mg/kg; details: in vivo
[7] = tested on: Rattus norvegicus; experiment: Anti-inflammatory activity in Dawley rats by carrageenan-induced rat paw edema at a dose of 10 mg/kg by oral administration; format: functional
[8] = tested on: Rattus norvegicus; experiment: Anti-inflammatory activity in Dawley rats by carrageenan-induced rat paw edema at a dose of 3 mg/kg by oral administration; format: functional
[9] = tested on: Rattus norvegicus; experiment: Anti-inflammatory activity in Dawley rats by carrageenan-induced rat paw edema at a dose of 30 mg/kg by oral administration; format: functional
[10] = tested on: Rattus norvegicus; experiment: Anti-inflammatory activity in Dawley rats by carrageenan-induced rat paw edema at a dose of 3 mg/kg; format: functional
[11] = tested on: Rattus norvegicus; experiment: Anti-inflammatory activity in Dawley rats by carrageenan-induced rat paw edema at a dose of 30 mg/kg; format: functional
[12] = molecular target: T3, Prostaglandin G/H synthase 2 (Mus musculus); experiment: In vitro percentage inhibition against Prostaglandin G/H synthase 2 using freshly harvested mouse peritoneal macrophages at 3 ug/mL concentration
[13] = molecular target: T1, Prostaglandin G/H synthase 1 (Mus musculus); experiment: In vitro percentage inhibition against using freshly harvested mouse peritoneal macrophages Prostaglandin G/H synthase 1 at 10 ug/mL concentration

inhibition [1] [%]	IC50 [2] [nM]	Structure (SMILES)	also measured
61	106	NS(=O)(=O)c1ccc(-c2oc3ccccc3c(=O)c2-c2ccccc2)cc1	–
< 5	142	COc1ccc(-c2c(-c3ccc(S(C)(=O)=O)cc3)oc3ccccc3c2=S)cc1	–
67	126	NS(=O)(=O)c1ccc(-c2oc3ccccc3c(=O)c2-c2ccc(F)cc2)cc1	–
< 5	269	CS(=O)(=O)c1ccc(-c2oc3ccccc3c(=O)c2-c2ccc(Cl)c(Cl)c2)cc1	–
90	283	CSc1ccc(-c2c(-c3ccc(S(N)(=O)=O)cc3)oc3ccccc3c2=O)cc1	–
84	393	COc1ccc(-c2c(-c3ccc(S(N)(=O)=O)cc3)oc3ccccc3c2=O)cc1	–
< 5	517	COc1ccc(-c2c(-c3ccc(S(C)(=O)=O)cc3)oc3ccccc3c2=O)cc1	–
< 5	203	CS(=O)(=O)c1ccc(-c2oc3ccccc3c(=O)c2-c2ccc(F)cc2)cc1	–
18	2310	COc1ccc(-c2c(-c3ccc(S(C)(=O)=O)cc3)oc3ccccc3c2=O)cn1	–
< 5	–	Cn1cc(-c2c(-c3ccc(S(C)(=O)=O)cc3)oc3ccccc3c2=O)cn1	inhibition [3]: 13%
60	177	NS(=O)(=O)c1ccc(-c2oc3ccccc3c(=O)c2-c2ccccc2F)cc1	–
–	925	NS(=O)(=O)c1ccc(-c2oc3ccccc3c(=O)c2-c2ccc3c(c2)OCO3)cc1	inhibition [13]: 75%
< 5	102	CS(=O)(=O)c1ccc(-c2oc3ccccc3c(=S)c2-c2ccccc2)cc1	–
< 5	359	CS(=O)(=O)c1ccc(-c2oc3ccccc3c(=O)c2-c2ccc(Cl)cc2Cl)cc1	–

More lines, now with the values behind:

Structure (SMILES)	inhibition [1] [%]	IC50 [2] [nM]	also measured
CS(=O)(=O)c1ccc(-c2oc3ccccc3c(=O)c2-c2ccccc2)cc1	< 5	930	–
Cc1ccccc1-c1c(-c2ccc(S(C)(=O)=O)cc2)oc2ccccc2c1=O	< 5	948	–
CS(=O)(=O)c1ccc(-c2oc3ccccc3c(=O)c2-c2cccc3ccccc23)cc1	< 5	3800	–
CS(=O)(=O)c1ccc(-c2oc3ccccc3c(=S)c2-c2ccc(F)cc2)cc1	< 5	73.1	–
CS(=O)(=O)c1ccc(-c2oc3ccccc3c(=O)c2-c2ccncc2)cc1	< 5	–	inhibition [3]: 24%
CS(=O)(=O)c1ccc(-c2oc3ccc(F)cc3c(=O)c2-c2cccnc2)cc1	12	1260	Cmax [4]: 6900 ng/mL; half-life [5]: 444 min; Tmax [6]: 5 h; inhibition in vivo at 10 mg/kg [7]: 26%; inhibition in vivo at 3 mg/kg [8]: 20%; inhibition in vivo at 30 mg/kg [9]: 41%
CS(=O)(=O)c1ccc(-c2oc3ccccc3c(=O)c2-c2cccc(F)c2)cc1	< 5	532	–
CS(=O)(=O)c1ccc(-c2oc3ccccc3c(=O)c2-c2ccccc2F)cc1	< 5	76.1	–
CS(=O)(=O)c1ccc(-c2oc3ccccc3c(=O)c2-c2ccccn2)cc1	17	–	inhibition [3]: 44%
CS(=O)(=O)c1ccc(-c2oc3ccccc3c(=O)c2-c2ccc(Cl)cc2)cc1	< 5	–	–
CS(=O)(=O)c1ccc(-c2oc3ccccc3c(=O)c2-c2cccnc2)cc1	13	–	inhibition in vivo at 3 mg/kg [10]: 18%; inhibition in vivo at 30 mg/kg [11]: 41%
CS(=O)(=O)c1ccc(-c2oc3ccccc3c(=O)c2-c2cc(Cl)cc(Cl)c2)cc1	< 5	–	inhibition [12]: 7%
CS(=O)(=O)c1ccc(-c2oc3ccccc3c(=S)c2-c2ccccc2F)cc1	< 5	195	–
CS(=O)(=O)c1ccc(-c2oc3ccccc3c(=O)c2-c2cc3ccccc3s2)cc1	< 5	324	–
CS(=O)(=O)c1ccc(-c2oc3ccccc3c(=S)c2-c2ccc(Cl)c(Cl)c2)cc1	< 5	520	–
CS(=O)(=O)c1ccc(-c2oc3ccccc3c(=O)c2-c2cccc(Cl)c2)cc1	< 5	365	–
